Measurements published in patent US11225605B2, “Polymerizable liquid crystal compound, method for producing polymerizable liquid crystal compound, polymerizable liquid crystal composition, optically anisotropic film, optical film, polarizing plate, and image display device” (FUJIFILM Corporation, priority 2017, dated 2022).

Tests used:
[1] = Solubility in methyl ethyl ketone (MEK) and cyclopentanone (CPN); format: physicochemical; details: for Solubility Evaluation: MEK or CPN; for Solubility CPO: cyclopentanone; for Solubility CPO / Solubility MEK: shaken at 50° C., left at room temperature (23° C.) for 10 minutes; for Solubility MEK: methyl ethyl ketone
Method: Specifically, 50 mg of the compound was weighed into a 1.5-mL sample bottle, and a solvent was added thereto until the solid content became 40% by weight (75 mg).
The mixture was thoroughly shaken by the hand at 50° C. and left to stand at room temperature (23° C.) for 10 minutes. Then, this operation was stopped in a case where the mixture was clear upon visual observation, and it was determined that the solubility was 40% by weight. A solvent was added so that the solid content became 35% by weight in a case where there were undissolved residues (+18 mg). The mixture was thoroughly shaken by the hand at 50° C. and left to stand at room temperature (23° C.) for 10 minutes. […] A solvent was added so that the solid content became 30% by weight in a case where there were undissolved residues. The same operation was performed in 5%-by-weight steps and repeated up to 5% by weight. In a case where there were undissolved residues, it was determined that the solubility was less than 5% by weight (<5% by weight), and the operation was stopped. Methyl ethyl ketone (MEK) and cyclopentanone (CPN) were used as solvents for solubility measurement.

[2] = Durability of optically anisotropic film at high temperature and high humidity; format: physicochemical; details: for Durability 100° C. Relatibe 144 hours: film left 144 hours at relative humidity 95%, variation in Re (550); for Durability of optically anisotropic film: result in words
Method: With regard to a test condition for durability, a test in which the film was left to stand for 144 hours in an environment of a relative humidity of 95% at 100° C. was performed as described in Table 6 below.

Solubility CPO [1] [% by weight] | Solubility MEK [1] [% by weight] | Durability of optically anisotropic film [2] | Structure (SMILES) | Solubility Evaluation [1] | Durability 100° C. Relatibe 144 hours [2]
10 | 8 | deteriorate | C=CC(=O)OCCCCCCOc1ccc(OC(=O)C2CCC(C(=O)Oc3cc(C(C)(C)C)c(OC(=O)C4CCC(C(=O)Oc5ccc(OCCCCCCOC(=O)C=C)cc5)CC4)c4c3SC(=C(C#N)C#N)S4)CC2)cc1 (centres unmarked) [Compound E-1] | C (A solubility in any one of MEK or CPN is less than 15%.) | C (A variation in Re (550) after the test with respect to the initial retardation value is 30% or more.)
20 | 10 | – | C=CC(=O)OCCCCCCOc1ccc(OC(=O)C2CCC(C(=O)Oc3c(C(C)(C)C)cc(OC(=O)C4CCC(C5CCC(CC)CC5)CC4)c4c3SC(=C(C#N)C#N)S4)CC2)cc1 (centres unmarked) [Compound I-3] | B (A solubility in any one of MEK or CPN is 15% or more and less than 30%.) | A (A variation in Re (550) after the test with respect to the initial retardation value is less than 15% of the initial value.)
1 | <1 | – | CCC1CCC(C2CCC(C(=O)Oc3cc(C(C)(C)C)c(OC(=O)C4CCC(C5CCC(CC)CC5)CC4)c4c3SC(=C(C#N)C#N)S4)CC2)CC1 (centres unmarked) [Compound I-1f] | C (A solubility in any one of MEK or CPN is less than 15%.) | –
30 | 35 | – | C=CC(=O)OCCOC(=O)CCC(=O)OCCc1ccc(OC(=O)C2CCC(C(=O)Oc3c(C(C)(C)C)cc(OC(=O)C4CCC(C5CCC(CC)CC5)CC4)c4c3SC(=C(C#N)C#N)S4)CC2)cc1 (centres unmarked) [Compound I-2] | A (A solubility in any one of MEK or CPN is 30% or more.) | A (A variation in Re (550) after the test with respect to the initial retardation value is less than 15% of the initial value.)
40 | 40 | – | C=CC(=O)OCC(C)(C)COC(=O)CCC(=O)OCCc1ccc(OC(=O)C2CCC(C(=O)Oc3cc(C(C)(C)C)c(OC(=O)C4CCC(C(=O)Oc5ccc(CCOC(=O)CCC(=O)OCC(C)(C)COC(=O)C=C)cc5)CC4)c4c3SC(=C(C#N)C#N)S4)CC2)cc1 (centres unmarked) [Compound C-1] | A (A solubility in any one of MEK or CPN is 30% or more.) | –
15 | 5 | – | C=CC(=O)OCC(C)(C)COC(=O)CCC(=O)OCCc1ccc(OC(=O)C2CCC(C(=O)Oc3cc(C(C)(C)C)c(OC(=O)C4CCC(C5CCC(CC)CC5)CC4)c4c3SC(=C(C#N)C#N)S4)CC2)cc1 (centres unmarked) [Compound I-13] | B (A solubility in any one of MEK or CPN is 15% or more and less than 30%.) | B (A variation in Re (550) after the test with respect to the initial retardation value is 15% or more and less than 30% of the initial value.)
10 | 1 | deteriorated | C=CC(=O)OCC(C)(C)COC(=O)CCC(=O)OCCc1ccc(OC(=O)C2CCC(C(=O)Oc3ccc(OC(=O)C4CCC(C5CCC(CC)CC5)CC4)c4c3SC(=C(C#N)C#N)S4)CC2)cc1 (centres unmarked) [Compound A-1] | C (A solubility in any one of MEK or CPN is less than 15%.) | C (A variation in Re (550) after the test with respect to the initial retardation value is 30% or more.)
40 | 40 | deteriorate | C=CC(=O)OCCOC(=O)CCC(=O)OCCc1ccc(OC(=O)C2CCC(C(=O)Oc3cc(C(C)(C)C)c(OC(=O)C4CCC(C(=O)Oc5ccc(CCOC(=O)CCC(=O)OCCOC(=O)C=C)cc5)CC4)c4c3SC(=C(C#N)C#N)S4)CC2)cc1 [Compound D-1] | A (A solubility in any one of MEK or CPN is 30% or more.) | C (A variation in Re (550) after the test with respect to the initial retardation value is 30% or more.)
15 | 5 | deteriorated | C=CC(=O)OCC(C)(C)COC(=O)CCC(=O)OCCc1ccc(OC(=O)C2CCC(C(=O)Oc3c(C)cc(OC(=O)C4CCC(C5CCC(CC)CC5)CC4)c4c3SC(=C(C#N)C#N)S4)CC2)cc1 (centres unmarked) [Compound B-1] | B (A solubility in any one of MEK or CPN is 15% or more and less than 30%.) | C (A variation in Re (550) after the test with respect to the initial retardation value is 30% or more.)
